Data reported in patent US10577332B2, “Tetrazole derivatives” (Hoffmann-La Roche Inc., priority 2015, dated 2020).

Tests used:
human EAAT3 = biological target: T1, human EAAT3 (Homo sapiens, UniProt P43005); assay: FLIPR Membrane Potential (FMP) assay; type: cell-based; settings: HEK-293 cells stably expressing human EAAT3; antagonist applied 15 min before L-glutamate at EC80; Kb by Cheng-Prusoff from IC50
T1 construct: expressed in transfected cells
T1 sequence (P43005 1-524): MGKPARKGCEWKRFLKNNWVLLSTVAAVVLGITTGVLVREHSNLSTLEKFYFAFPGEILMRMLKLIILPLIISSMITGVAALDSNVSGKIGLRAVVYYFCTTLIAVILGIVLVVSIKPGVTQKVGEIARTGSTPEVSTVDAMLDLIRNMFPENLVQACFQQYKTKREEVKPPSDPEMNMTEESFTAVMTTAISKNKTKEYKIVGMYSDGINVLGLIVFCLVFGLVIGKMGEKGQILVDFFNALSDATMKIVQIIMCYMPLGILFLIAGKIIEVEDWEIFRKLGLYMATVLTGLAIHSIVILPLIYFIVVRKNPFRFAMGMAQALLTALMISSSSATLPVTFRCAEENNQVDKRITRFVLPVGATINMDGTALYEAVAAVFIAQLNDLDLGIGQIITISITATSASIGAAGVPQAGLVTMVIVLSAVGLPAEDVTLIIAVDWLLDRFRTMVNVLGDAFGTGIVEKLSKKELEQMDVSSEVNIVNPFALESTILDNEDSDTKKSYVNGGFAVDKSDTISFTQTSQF
Protocol: The FLIPR Membrane Potential (FMP) Assay
HEK-293 cells stably expressing human EAAT3 were seeded at 55 000 cells/well in growth medium (DMEM glutamate free (Invitrogen 11960-044), 1% Pen Strep (10 ml/l GIBCO BRL No 15140-023), 10% FCS non dialysed heat inactivated, 5 mg/l puromycin) in poly-D-lysine treated 96-well black microtiter plates with clear-bottom. After 24 h, the growth medium was removed and 100 μl/well of Krebs buffer (140 mM NaCl, 4.7 mM KCl, 2.5 mM CaCl2, 1.2 mM MgCl2, 11 mM HEPES, 10 mM D-glucose, pH=7.4) added. The cells were then loaded by adding 100 μl/well FMP assay dye (FLIPR Membrane Potential assay reagent, Molecular Devices). The 96-well plates were then incubated at 37° C. for 1 h. The depolarization of the cells will cause more dye to enter in the cells, where it will bind to intracellular proteins and lipids and cause an increase in the fluorescence signal. Antagonist potency at human EAAT3 was determined by using L-glutamate as agonist at a concentration which gives 80% of the maximum response. The antagonists were applied 15 min before the application of the agonist L-glutamate. The assays were performed at room temperature and measurements done by using a Fluorometric Imaging Plate Reader (FLIPR, Molecular Devices) and filter #2. Responses were measured as peak increase in fluorescence minus basal (i.e. fluorescence without addition of L-glutamate). Kb was determined using the Cheng-Prusoff equation Kb=IC50/[1+(A/EC50)], where IC50 is the concentration of the antagonist producing 50% inhibition, A is the concentration of the agonist against which the IC50 is being determined (at EC80) and EC50 is the concentration of the agonist producing 50% […].

Compound	melting point [°C]	Kb (human EAAT3) [nM]
CC(C)c1nnnn1-c1cc(C(=O)NC(C)(C)C)cc(-c2ccc(C(F)(F)F)cc2)c1 [Example 47, N-tert-Butyl-3-(5-propan-2-yltetrazol-1-yl)-5-[4-(trifluoromethyl)-phenyl]-benzamide]	92	270
CC(C)c1nnnn1-c1cc(C(=O)NC(C)(C)C2CC2)cc(-c2ccc(C(F)(F)F)cc2)c1 [Example 48, N-(2-Cyclopropylpropan-2-yl)-3-(5-propan-2-yltetrazol-1-yl)-5-[4-(trifluoromethyl)phenyl]benzamide]	90	420
CC(C)c1nnnn1-c1cc(C(=O)NC(C)(C)C(F)(F)F)cc(-c2ccc(Cl)cc2)c1 [Example 52, 3-(4-Chlorophenyl)-5-(5-propan-2-yltetrazol-1-yl)-N-(1,1,1-trifluoro-2-methylpropan-2-yl)-benzamide]	90	340
CC(C)c1nnnn1-c1cc(C(=O)NC(C)(C)C(F)(F)F)cc(-c2ccc(C(F)(F)F)cc2)c1 [Example 53, 3-(5-Propan-2-yltetrazol-1-yl)-5-[4-(trifluoromethyl)-phenyl]-N-(1,1,1-trifluoro-2-methylpropan-2-yl)-benzamide]	91	480
CC(C)(NC(=O)c1cc(-c2ccc(Cl)cc2)cc(-n2nnnc2C2CC2)c1)C(F)(F)F [Example 54, 3-(4-Chlorophenyl)-5-(5-cyclopropyltetrazol-1-yl)-N-(1,1,1-trifluoro-2-methylpropan-2-yl)-benzamide]	91.5	210
CCC(C)(C)NC(=O)c1cc(-c2ccc(Cl)cc2)cc(-n2nnnc2C2CC2)c1 [Example 55, 3-(4-Chlorophenyl)-5-(5-cyclopropyltetrazol-1-yl)-N-(2-methylbutan-2-yl)-benzamide]	78	480
CC(C)(C)NC(=O)c1cc(-c2ccc(Cl)cc2)cc(-n2nnnc2C2CC2)c1 [Example 56, N-tert-Butyl-3-(4-chlorophenyl)-5-(5-cyclopropyltetrazol-1-yl)-benzamide]	90	180
CC(C)(CO)NC(=O)c1cc(-c2ccc(Cl)cc2)cc(-n2nnnc2C2CC2)c1 [Example 58, 3-(4-Chlorophenyl)-5-(5-cyclopropyltetrazol-1-yl)-N-(1-hydroxy-2-methylpropan-2-yl)-benzamide]	110	360
CC(C)c1nnnn1-c1cc(C(=O)NC(C)(C)C(F)(F)F)cc(-c2ccc(F)cc2)c1 [Example 59, 3-(4-Fluorophenyl)-5-(5-propan-2-yltetrazol-1-yl)-N-(1,1,1-trifluoro-2-methylpropan-2-yl)-benzamide]	80	310
CCC(C)(C)NC(=O)c1cc(-c2ccc(F)cc2)cc(-n2nnnc2C(C)C)c1 [Example 60, 3-(4-Fluorophenyl)-N-(2-methylbutan-2-yl)-5-(5-propan-2-yltetrazol-1-yl)-benzamide]	69	210
CC(C)c1nnnn1-c1cc(C(=O)NC(C)(C)C)cc(-c2ccc(F)cc2)c1 [Example 61, N-tert-Butyl-3-(4-fluorophenyl)-5-(5-propan-2-yltetrazol-1-yl)-benzamide]	85	230
CC(C)c1nnnn1-c1cc(C(=O)NC(C)(C)CO)cc(-c2ccc(F)cc2)c1 [Example 62, 3-(4-Fluorophenyl)-N-(1-hydroxy-2-methylpropan-2-yl)-5-(5-propan-2-yltetrazol-1-yl)-benzamide]	86.5	550
Cc1nnnn1-c1cc(C(=O)NC(C)(C)CO)cc(-c2ccc(Cl)cc2)c1 [Example 64, 3-(4-Chlorophenyl)-N-(1-hydroxy-2-methylpropan-2-yl)-5-(5-methyl-tetrazol-1-yl)-benzamide]	193	420
CCC(C)(C)NC(=O)c1cc(-c2ccc(Cl)cc2)cc(-n2nnnc2C)c1 [Example 66, 3-(4-Chlorophenyl)-N-(2-methylbutan-2-yl)-5-(5-methyltetrazol-1-yl)-benzamide]	80.5	170
Cc1nnnn1-c1cc(C(=O)NC(C)(C)C)cc(-c2ccc(Cl)cc2)c1 [Example 67, N-tert-Butyl-3-(4-chlorophenyl)-5-(5-methyltetrazol-1-yl)-benzamide]	98	240
CCC(C)(C)NC(=O)c1cc(-c2ccc(F)cc2)cc(-n2nnnc2C2CC2)c1 [Example 68, 3-(5-Cyclopropyltetrazol-1-yl)-5-(4-fluorophenyl)-N-(2-methylbutan-2-yl)-benzamide]	74	180
CC(C)(C)NC(=O)c1cc(-c2ccc(F)cc2)cc(-n2nnnc2C2CC2)c1 [Example 69, N-tert-Butyl-3-(5-cyclopropyltetrazol-1-yl)-5-(4-fluorophenyl)-benzamide]	82	150
Cc1nnnn1-c1cc(C(=O)NC(C)(C)C(F)(F)F)cc(-c2ccc(Cl)cc2)c1 [Example 70, 3-(4-Chlorophenyl)-5-(5-methyltetrazol-1-yl)-N-(1,1,1-trifluoro-2-methylpropan-2-yl)-benzamide]	96	230
CC(C)(CO)NC(=O)c1cc(-c2ccc(F)cc2)cc(-n2nnnc2C2CC2)c1 [Example 71, 3-(5-Cyclopropyltetrazol-1-yl)-5-(4-fluorophenyl)-N-(1-hydroxy-2-methylpropan-2-yl)-benzamide]	80	410
CC(C)(NC(=O)c1cc(-c2ccc(F)cc2)cc(-n2nnnc2C2CC2)c1)C1CC1 [Example 72, N-(2-Cyclopropylpropan-2-yl)-3-(5-cyclopropyltetrazol-1-yl)-5-(4-fluorophenyl)-benzamide]	73	380
CC(C)(NC(=O)c1cc(-c2ccc(F)cc2)cc(-n2nnnc2C2CC2)c1)C(F)(F)F [Example 73, 3-(5-Cyclopropyltetrazol-1-yl)-5-(4-fluorophenyl)-N-(1,1,1-trifluoro-2-methylpropan-2-yl)-benzamide]	81	110
CCC(C)(C)NC(=O)c1cc(-c2ccc(Cl)cc2)cc(-n2nnnc2C(F)(F)F)c1 [Example 74, 3-(4-Chlorophenyl)-N-(2-methylbutan-2-yl)-5-[5-(trifluoromethyl)-tetrazol-1-yl]-benzamide]	185	180
CC(C)(C)NC(=O)c1cc(-c2ccc(Cl)cc2)cc(-n2nnnc2C(F)(F)F)c1 [Example 75, N-tert-Butyl-3-(4-chlorophenyl)-5-[5-(trifluoromethyl)-tetrazol-1-yl]-benzamide]	186	110
CC(C)(CO)NC(=O)c1cc(-c2ccc(Cl)cc2)cc(-n2nnnc2C(F)(F)F)c1 [Example 76, 3-(4-Chlorophenyl)-N-(1-hydroxy-2-methylpropan-2-yl)-5-[5-(trifluoromethyl)-tetrazol-1-yl]-benzamide]	89	300
CCC(C)(C)NC(=O)c1cc(-c2ccc(F)cc2)cc(-n2nnnc2C)c1 [Example 78, 3-(4-Fluorophenyl)-N-(2-methylbutan-2-yl)-5-(5-methyltetrazol-1-yl)-benzamide]	83	110
CC(C)(NC(=O)c1cc(-c2ccc(Cl)cc2)cc(-n2nnnc2C(F)(F)F)c1)C(F)(F)F [Example 79, 3-(4-Chlorophenyl)-N-(1,1,1-trifluoro-2-methylpropan-2-yl)-5-[5-(trifluoromethyl)tetrazol-1-yl]-benzamide]	166.5	200
Cc1nnnn1-c1cc(C(=O)NC(C)(C)C)cc(-c2ccc(F)cc2)c1 [Example 80, N-tert-Butyl-3-(4-fluorophenyl)-5-(5-methyltetrazol-1-yl)-benzamide]	80	180
